A value given as a limit tells only on which side of the number the result lay.

One data set relates to basal glucose uptake. In words: Glucose uptake of possible hydrolyzed products (FIG. 2). It is filed as cell-based. An excerpt: (§1) In summary, a library of multiphenolic ester compounds as novel inhibitors of basal glucose transport and anticancer agents with a potential new target, basal glucose transport, were synthesized.
The next data set relates to cancer cells. In words: Anticancer screens of hydrolysis products. The format is cell-based.
Source text: as §1

The test system of a further data set is H1299 cells. In words: Standard glucose uptake assay, H1299. To be noted: for glucose uptake inhibition compared with fasentin / Glucose transport inhibition (%): H1299; for glucose uptake inhibition compared with fasentin: all compounds 30 μM, FIG. 22A. It is filed as cell-based, human. On the procedure:
(§2) Briefly, H1299 cancer cells were treated with or without the compounds (30 μM) in triplicates for 10 min before the glucose uptake assay. Cellular glucose uptake was measured by incubating cells in the glucose-free KRP buffer with […] [^3H]2-deoxyglucose (specific activity, 40 Ci/mmol) for 30 min in the absence or presence of compounds. After the cells were washed with ice-cold PBS and lysed by 0.2 N NaOH, the cell lysates were transferred to scintillation counting vials and the radioactivity in the cell lysates was quantified by liquid scintillation counting. Cell growth measurements were performed using an MTT assay in hexads in a 96-well tissue culture plate with 5,000 cells plated in each well. The cells were incubated in presence or absence of the compounds (30 μM) for 48 h. After incubation, cell viabilities were assayed using a 96-well SPECTRAMAX™ absorbance/fluorescence plate reader (Molecular Devices).
Cancer cells are treated with or without the compounds for 10 min before the glucose uptake assay. Cellular glucose uptake will be measured by incubating cells in glucose-free RPMI 1640 with […] [^3H]2-deoxyglucose (specific activity, 40 Ci/mmol) for 30 min in the absence and presence of compounds. After the cells are washed with ice-cold PBS and lysed, the cell lysates will be transferred to scintillation counting vials and the radioactivity in the cell lysates is quantified by liquid scintillation counting.

Data set [1] has as its system three different cancer cell lines. The note with it: all compounds 60 μM, FIG. 22B. On the procedure: Known basal glucose compound fasentin and compound inhibitors generated in house were compared side by side in both glucose uptake assay and cell viability (MTT) assay. Glucose uptake or cell viability of mock treated samples was arbitrarily assigned a value of 100%. A. Glucose uptake assay in H1299 cancer cells. Concentration for all compounds was 30 μM. B. Cell viability assays in three different cancer cell lines. Concentration for all compounds was 60 μM.
Fasentin is a published inhibitor of basal glucose transport and known GLUT1 inhibitor.

For a further data set, the system named is H1299 lung cancer cells. In words: MTT cell growth / viability assay, H1299. The note with it: for % cell death: concentration = IC50 for each compound. It is filed as cell-based, human. The procedure:
as §2
(§3) MTT assays are performed by the following well-established method. In a 96 well tissue culture plate 10,000 cells are plated in each well. The cells are incubated in presence or absence of the compounds for 18 h. 3-(4,5-Dimethylthiazol-2-yl)-2,5-diphenyltetrazolium bromide (MTT) is dissolved in PBS (10 mg/ml) and filter sterilized. Three hours before the end of the incubation 20 μL of MTT solution is added to each well containing cells in a 96-well plate. The plate is incubated in an incubator at 37° C. for 3 h. Media is aspirated gently and 200 μL of DMSO is added to each well to dissolve formazan crystals. The absorbance is measured at 550 nm for cell viability.

For data set [2], the system named is HeLa cells. In words: Glucose uptake assay (3H 2-DG), HeLa. The format is cell-based, human. On the procedure:
Cells were treated with α-PGG for 20 minutes before ^3H-labeled 2-DG. […] Samples: 1. Mock; 2. […] WZB-25 (30 μM); 5. WZB-26 (30 μM); and 6. WZB-27 (30 μM). Compounds 1a and 2a were initially prepared as potential anti-diabetic analogs of α-PGG (FIG. 1). Given the tight SAR of this class of compounds, it was hypothesized that a more rigid scaffold (i.e., a benzene ring) might enhance the activity. […] Error bars in FIG. 8 represent standard deviations of the measurements. Samples were done in triplicates and the experiment was repeated three times.

Data set [3] deals with PARP protein (Caspase 3 substrate) in H1299 lung cancer cells. In words: PARP cleavage assay, H1299. It is filed as cell-based, human. An excerpt:
A. Cell viability assay in RKO colon cancer cells with α-PGG, W25 (WZB-25), W27 (WZB-27), and C7 treatments. RKO cells contain high levels of p53 while RKO E6 cells contain much lower levels of p53. B. Apoptosis assay in H1299 lung cancer cells using cleaved PARP protein (89 kDa) as an indicator for Caspase 3 since PARP is a substrate of activated Caspase 3.
To determine if anti-cancer compounds W25 and W27 kill cancer cells using a p53 dependent or a p53-independent pathway, a cell killing assay was performed in RKO and RKO E6 cell lines. The difference between the two cell lines is that RKO cells contain much higher levels of p53 than RKO E6 cells.
Cells were harvested from plates, re-suspended with 3× sample buffer, and boiled for 5 min. Approximately […] of protein extract was loaded after protein concentration measurement by Pierce bicinchoninic acid (BCA) protein assay (Pierce Biotechnology, Inc. Rockford, Ill.). Samples were run on a 10% Bio-Tris NuPAGE gel (Invitrogen) and transferred to a polyvinylidene difluoride membrane (PVDF, Biorad). The membrane was incubated with antibodies specific to p53, or PARP, or β-actin. Specific protein bands were visualized after the development of film. Antibodies for p53 were purchased from Santa Cruz Biotechnology, Inc. (Santa Cruz, Calif., USA). […]

The test system of data set [4] is RKO and RKO E6 cell lines. In words: Cell killing assay in RKO and RKO E6 cells. The note with it: high vs low p53. The format is cell-based, human.
Source text: A. Cell viability assay in RKO colon cancer cells. RKO cells contain high levels of p53 while RKO E6 cells contain much lower levels of p53. […] RKO cells have higher level of p53 while RKO-E6 is p53 deficient. ***p<0.001, **p<0.01. C.
The next data set has as its system basal glucose transport. The note with it: known glucose transport inhibitors, positive controls; cited from earlier work.
The subject of the next data set is MCF7 breast cancer cells. In words: MTT cell death assay, MCF7. The format is cell-based, human. To be noted: concentration = IC50 for each compound.
Source text: (§4) Comparative assays using WZB-27, WZB-115, as well as two known anticancer drugs, cisplatin and taxol, were completed. In Table 4, the percent cell death in cancer cell lines as well as normal cell lines is shown. […] Comparing the breast cancer cell line MCF7, WZB-27 and WZB-115 kill somewhat fewer cells relative to taxol but more than cisplatin. Both WZB-27 and WZB-115 kill fewer of the normal breast cell line MCF12A than taxol or cisplatin. WZB-27 kills fewer of the normal breast cell line MCF12A than taxol or cisplatin while WZB-115 kills no more normal cells than either cisplatin or taxol.
as §3

Data set [5] deals with MCF12A normal breast cells. In words: MTT cell death assay, MCF12A. The format is cell-based, human. To be noted: concentration = IC50 for each compound.
Source text: as §4, §3

The subject of another data set is NL20 normal lung cells. In words: MTT cell death assay, NL20. It is filed as cell-based, human. To be noted: concentration = IC50 for each compound.
Source text: as §4, §3

A further data set has as its system MCF-7 cells. In words: Glucose uptake assay (3H 2-DG), MCF-7. The format is cell-based, human. The note with it: 30 μM. On the procedure:
(§5) Cells were treated with α-PGG for 20 minutes before ^3H-labeled 2-DG. Thirty minutes after the addition of 2-DG, cells were harvested, lysed, and counted for their respective glucose uptake. Samples: 1. Mock; 2. […] WZB-25 (30 μM); 5. WZB-26 (30 μM); and 6. WZB-27 (30 μM).
(§6) Compounds 1a and 2a were initially prepared as potential anti-diabetic analogs of α-PGG (FIG. 1). Given the tight SAR of this class of compounds, it was hypothesized that a more rigid scaffold (i.e., a benzene ring) might enhance the activity.

Data set [6] has as its system insulin-like glucose uptake stimulatory activity. In words: Insulin-like activity of PGG analogs. The format is cell-based.
The test system of the next data set is RKO cells. In words: Glucose uptake assay (3H 2-DG), RKO. It is filed as cell-based, human. The note with it: 30 μM. The procedure: as §5, §6
Data set [7] has as its system HeLa cells. In words: Antibody-coupled flow cytometry study. It is filed as cell-based, human. The note with it: FIG. 5C. An excerpt: (§7) A. α-PGG treatment led to 70-80% reduction of cell viability as measured by a cell viability (MTT) assay. […] C. α-PGG treatment of HeLa cells led to a decrease in G1 phase cells but a significant increase (˜3-fold) in apoptotic cells as determined by an antibody-coupled flow cytometry study.

Data set [8] deals with RKO (colon), HeLa (cervical), and MCF-7 (breast) human cancer cells. In words: Cell viability (MTT) assay of α-PGG treated cancer cells. The format is cell-based. The note with it: FIG. 5A.
Source text: as §7

Data set [9] has as its system HeLa cells. In words: Apoptosis (ELISA) assay. It is filed as cell-based, human. To be noted: FIG. 5B.

For `Oc1cccc(O)c1O` [Compound 8, pyrogallol], the “glucose uptake inhibition activity” value in the data set on basal glucose uptake is on record as “none of these compounds had any glucose uptake inhibition activity”. Also, the “activity in anticancer screens” value in the data set with cancer cells is on record as “none of these compounds showed any activity in anticancer screens”.
As to `Oc1cccc(COc2cccc(OCc3cccc(O)c3)c2OCc2cccc(O)c2)c1` [WZB-131], the “glucose uptake inhibition compared with fasentin” value in the data set on H1299 cells is “stronger inhibition than fasentin”. Besides, in the data set with H1299 cells (Table 12), the “Glucose transport inhibition (%)” value came out at 95.0 ± 1.6%. Moreover, the “cancer cell death compared with fasentin” value in data set [1] is recorded as “more cancer cell death than fasentin”. In the data set on H1299 lung cancer cells (Table 12), the “Cell growth inhibition (%)” value worked out at 12.9 ± 2.6%.
For `O=C(O[C@@H]1[C@@H](OC(=O)c2cc(O)c(O)c(O)c2)[C@@H]2OC[C@@H](O2)[C@H]1OC(=O)c1cc(O)c(O)c(O)c1)c1cc(O)c(O)c(O)c1` [WZB-25], the “dose dependence of basal glucose transport inhibition” value with HeLa cells [2] (HeLa, FIG. 8) is given as “dose-dependent manner”. Besides, the PARP cleavage entry in [3] is on record as “cleaved into a 89 kDa protein”. In addition, in [4], the “cell killing / viability RKO vs RKO E6” value is “killed about the same amounts of RKO cells and RKO E6 cells”.
Regarding `CC(=O)CC(=O)Nc1ccc(Cl)c(C(F)(F)F)c1` [Fasentin, fasentin], the IC50 in the data set on basal glucose transport was no less than 50 µM.
For `O=c1cc(-c2ccc(O)cc2)oc2cc(O)cc(O)c12` [apigenin], in the data set on basal glucose transport, the IC50 is no less than 60 µM.
`N.N.[Cl][Pt][Cl]` [Cisplatin, cisplatin]: the “% cell death” value is 27.0 ± 1.9% with MCF7 breast cancer cells, 26.4 ± 3.8% with H1299 lung cancer cells, 69.6 ± 2.9% in [5] and 58.4 ± 7.0% in the data set with NL20 normal lung cells.
For `COc1cccc(OC(=O)c2cc(O)c(O)c(O)c2)c1OC(=O)c1cc(O)c(O)c(O)c1` [Compound 1a], the “Glucose transport inhibitory activity (%)” value in the data set on HeLa cells [2] (Hela, 30 μM) is on record as 46.3 ± 3.3%; in the data set on MCF-7 cells it was 33.0 ± 0.5%; in the data set on RKO cells it was 57.2 ± 4.4%. The “Glucose transport inhibition (%)” value with H1299 cells (Table 2, 30 μM, untreated cells 0% inhibition) is reported as 58.4±6.3%. Further, in the data set on H1299 cells (Table 3, 30 μM in H1299 cells, listed as WZB-26), the “% inhibition of basal glucose transport” value is listed as 84.0 ± 1.9%. Besides, the insulin-like activity entry in data set [6] is recorded as “without any insulin-like activity”. Further, the “Cell growth inhibition (%)” value in the data set on H1299 lung cancer cells (Table 2, 30 μM, 48 h) was 36.0±6.1%.
Regarding `Oc1cccc(COc2ccc(Cl)cc2OCc2cccc(O)c2)c1` [WZB-133], in the data set with H1299 cells, the “glucose uptake inhibition compared with fasentin” value is on record as “stronger inhibition than fasentin”. Further, in the data set with H1299 cells (Table 12), the “Glucose transport inhibition (%)” value is 91.2 ± 0.8%. Further, in data set [1], the “cancer cell death compared with fasentin” value is reported as “more cancer cell death than fasentin”. For the same molecule, in the data set on H1299 lung cancer cells (Table 12), the “Cell growth inhibition (%)” value was determined as 14.3 ± 2.7%.
As to `Oc1cccc(F)c1O` [Compound 6c], the “glucose uptake inhibition activity” value in the data set with basal glucose uptake is “none of these compounds had any glucose uptake inhibition activity”. The “activity in anticancer screens” value in the data set with cancer cells was “none of these compounds showed any activity in anticancer screens”.
`O=C(OC[C@H]1O[C@@H](OC(=O)c2cc(O)c(O)c(O)c2)[C@H](OC(=O)c2cc(O)c(O)c(O)c2)[C@@H](OC(=O)c2cc(O)c(O)c(O)c2)[C@@H]1OC(=O)c1cc(O)c(O)c(O)c1)c1cc(O)c(O)c(O)c1` [α-PGG, penta-galloyl-glucose]: the “concentration at which glucose transport inhibition starts” value with HeLa cells [2] (HeLa, 20 min preincubation) stood at 5 µM. Moreover, in the data set with HeLa cells [7], the “increase in apoptotic cells” value is roughly 3 fold. In addition, in data set [8], the “reduction of cell viability” value is recorded as 70-80%. The increase in apoptosis result in the data set with HeLa cells [9] was “more than 2 fold”.
As for `CC(=O)O[C@H]1C(=O)[C@@]2(C)[C@H]([C@H](OC(=O)c3ccccc3)[C@]3(O)C[C@H](OC(=O)[C@H](O)[C@@H](NC(=O)c4ccccc4)c4ccccc4)C(C)=C1C3(C)C)[C@]1(OC(C)=O)CO[C@@H]1C[C@@H]2O` [Taxol, taxol], the “% cell death” value in the data set with MCF7 breast cancer cells is listed as 61.4 ± 7.1%; in the data set on H1299 lung cancer cells, 45.6 ± 4.9%; in [5], 73.7 ± 5.6%; with NL20 normal lung cells, 53.8 ± 4.2%.

These data come from patent US10385005B2, “Compositions and methods for glucose transport inhibition” (OHIO UNIVERSITY, priority 2010, dated 2019).
